Measurements: paper PMC3093745 (ACS Medicinal Chemistry Letters, 2011)

Legend:
MCF7 cells = test: Propidium iodide staining, cell cycle and cell death in MCF7 cells; assay type: cell-based; conditions: 1 µM, 48 hours, PI staining
HDAC2 = HDAC2 (Homo sapiens, UniProt Q92769); test: HDAC2 in vitro homogeneous fluorogenic deacetylase assay; assay type: biochemical; conditions: read-out: IC50 HDAC2; SD in parentheses; duplicate; substrate MAZ1600 22 µM
HDAC1 = HDAC1 (Homo sapiens, UniProt Q13547); test: HDAC1 in vitro homogeneous fluorogenic deacetylase assay; assay type: biochemical; conditions: read-out: IC50 HDAC1; SD in parentheses; duplicate; substrate MAZ1600 21 µM
HDAC1, sequence (Q13547 whole entry): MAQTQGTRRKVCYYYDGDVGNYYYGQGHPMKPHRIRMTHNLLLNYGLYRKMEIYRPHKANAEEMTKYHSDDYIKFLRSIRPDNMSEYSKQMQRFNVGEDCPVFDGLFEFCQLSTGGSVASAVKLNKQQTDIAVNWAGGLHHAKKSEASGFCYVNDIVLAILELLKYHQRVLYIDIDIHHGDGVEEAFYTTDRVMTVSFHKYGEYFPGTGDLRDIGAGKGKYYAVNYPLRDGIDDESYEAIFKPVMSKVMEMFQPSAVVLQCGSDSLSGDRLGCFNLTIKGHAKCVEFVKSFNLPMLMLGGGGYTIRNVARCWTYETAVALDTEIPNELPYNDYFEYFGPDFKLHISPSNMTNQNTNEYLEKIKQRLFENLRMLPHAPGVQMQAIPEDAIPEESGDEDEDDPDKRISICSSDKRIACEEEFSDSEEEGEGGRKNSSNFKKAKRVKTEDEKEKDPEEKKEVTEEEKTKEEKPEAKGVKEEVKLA

HDAC3 = HDAC3 (Homo sapiens, UniProt O15379); test: HDAC3 in vitro homogeneous fluorogenic deacetylase assay; assay type: biochemical; conditions: read-out: IC50 HDAC3; SD in parentheses; duplicate; substrate MAZ1600 9 µM
HDAC3, sequence (O15379 whole entry): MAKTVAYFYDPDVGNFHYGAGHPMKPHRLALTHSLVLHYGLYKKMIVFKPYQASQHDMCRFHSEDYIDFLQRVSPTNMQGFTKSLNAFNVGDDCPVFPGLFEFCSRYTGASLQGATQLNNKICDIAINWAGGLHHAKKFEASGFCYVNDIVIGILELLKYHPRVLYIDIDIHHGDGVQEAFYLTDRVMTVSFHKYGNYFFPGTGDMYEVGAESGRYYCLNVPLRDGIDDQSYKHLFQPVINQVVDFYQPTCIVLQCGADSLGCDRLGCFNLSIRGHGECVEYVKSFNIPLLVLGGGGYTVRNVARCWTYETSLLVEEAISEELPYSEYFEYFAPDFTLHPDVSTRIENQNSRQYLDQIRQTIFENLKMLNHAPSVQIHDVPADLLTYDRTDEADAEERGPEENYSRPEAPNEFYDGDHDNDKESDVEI
HDAC3, sequence (Q9Y618 395-489 partner limits assumed): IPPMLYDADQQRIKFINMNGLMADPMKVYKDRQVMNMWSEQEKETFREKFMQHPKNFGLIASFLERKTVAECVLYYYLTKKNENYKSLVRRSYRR

HDAC6 = biological target: T1, HDAC6 (Homo sapiens, UniProt Q9UBN7); test: HDAC6 in vitro homogeneous fluorogenic deacetylase assay; assay type: biochemical; conditions: read-out: IC50 HDAC6; SD in parentheses; duplicate; substrate MAZ1600 9 µM
T1 sequence (Q9UBN7 1-1215): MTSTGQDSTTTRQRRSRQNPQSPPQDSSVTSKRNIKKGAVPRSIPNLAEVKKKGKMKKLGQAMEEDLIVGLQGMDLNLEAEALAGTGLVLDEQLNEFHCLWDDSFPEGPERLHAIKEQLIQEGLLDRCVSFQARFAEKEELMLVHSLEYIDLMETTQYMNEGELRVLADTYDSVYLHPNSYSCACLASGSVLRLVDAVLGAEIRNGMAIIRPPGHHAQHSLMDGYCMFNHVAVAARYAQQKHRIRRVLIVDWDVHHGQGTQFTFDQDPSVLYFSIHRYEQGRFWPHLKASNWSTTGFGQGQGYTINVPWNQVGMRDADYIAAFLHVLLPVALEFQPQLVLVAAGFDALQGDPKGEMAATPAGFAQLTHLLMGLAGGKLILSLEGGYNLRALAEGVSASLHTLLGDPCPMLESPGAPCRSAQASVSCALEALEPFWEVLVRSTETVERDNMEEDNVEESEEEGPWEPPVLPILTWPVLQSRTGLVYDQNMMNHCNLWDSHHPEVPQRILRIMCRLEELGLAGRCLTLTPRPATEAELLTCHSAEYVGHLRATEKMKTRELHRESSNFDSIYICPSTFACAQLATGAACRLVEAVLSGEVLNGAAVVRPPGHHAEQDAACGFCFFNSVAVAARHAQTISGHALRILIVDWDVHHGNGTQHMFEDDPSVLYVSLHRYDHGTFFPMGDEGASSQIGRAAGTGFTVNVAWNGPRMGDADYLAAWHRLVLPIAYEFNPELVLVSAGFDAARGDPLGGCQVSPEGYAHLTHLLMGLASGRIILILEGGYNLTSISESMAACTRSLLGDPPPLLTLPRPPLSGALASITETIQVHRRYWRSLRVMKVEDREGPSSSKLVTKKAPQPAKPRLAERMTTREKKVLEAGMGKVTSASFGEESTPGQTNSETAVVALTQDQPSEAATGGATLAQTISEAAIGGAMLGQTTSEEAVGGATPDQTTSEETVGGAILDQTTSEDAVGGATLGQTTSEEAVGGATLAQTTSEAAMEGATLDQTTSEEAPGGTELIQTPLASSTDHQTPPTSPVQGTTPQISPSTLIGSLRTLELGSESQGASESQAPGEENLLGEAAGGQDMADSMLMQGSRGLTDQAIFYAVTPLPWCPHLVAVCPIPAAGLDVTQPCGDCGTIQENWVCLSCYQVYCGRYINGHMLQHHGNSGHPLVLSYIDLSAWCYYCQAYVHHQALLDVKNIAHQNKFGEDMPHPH

HDAC2, sequence (Q92769 whole entry): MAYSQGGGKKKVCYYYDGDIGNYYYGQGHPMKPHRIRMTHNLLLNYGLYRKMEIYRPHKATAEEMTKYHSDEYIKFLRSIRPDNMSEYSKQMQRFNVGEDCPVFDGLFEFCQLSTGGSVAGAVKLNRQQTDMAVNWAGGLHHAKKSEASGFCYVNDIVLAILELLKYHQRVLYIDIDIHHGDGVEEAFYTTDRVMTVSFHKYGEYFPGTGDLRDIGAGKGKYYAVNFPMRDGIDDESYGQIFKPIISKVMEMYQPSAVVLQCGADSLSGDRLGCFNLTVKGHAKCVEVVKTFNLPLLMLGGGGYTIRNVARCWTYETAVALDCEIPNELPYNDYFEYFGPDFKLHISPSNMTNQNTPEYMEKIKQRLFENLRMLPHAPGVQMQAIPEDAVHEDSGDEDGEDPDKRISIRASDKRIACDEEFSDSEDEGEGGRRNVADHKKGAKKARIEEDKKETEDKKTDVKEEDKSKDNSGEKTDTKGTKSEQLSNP

O=C(CCCCCCC(=O)N[c-]1cccc1)NO.[Fe+2].c1cc[cH-]c1 [Compound 7, N^1-Hydroxy-N^8-ferrocenyloctanediamide]
cell cycle arrest and cell death (MCF7 cells): induced cell cycle arrest and cell death | IC50 (HDAC2): 11 nM | IC50 (HDAC1): 11 nM | IC50 (HDAC3): 18 nM | IC50 (HDAC6): 0.8 nM
